In patent US20230391868A1, “COMPOSITIONS FOR AND METHODS OF TREATING CANCER” (The George Washington University, priority 2022, published 2023):

Tests used:
mouse SIRPα promoter = assay: SIRPα-luc reporter luciferase assay in A31A7 macrophages; type: cell-based; conditions: 10 μM of NextA; untreated transfected cells 32.2-fold (FIG. 2B)
Method: The mouse CD47 or SIRPα promoters were cloned into a promoterless pGL4.20[luc2/puro] vector using Genentech's cloning services (San Francisco, CA, USA). Vectors were transfected into SM1 and B16 melanoma cells using Lipofectamine 3000 (L3000008, ThermoFisher) and transfected cells were selected using puromycin. A31A7 macrophages were transiently transfected using jetOPTIMUS DNA transfection reagent (Polyplus, NY, USA). Luminescence was measured using the Luciferase Assay System (E4550, Promega) in a SpectraMax i3× Multi-Mode Microplate Reader (Molecular Devices).
To investigate whether HDAC6 controlled SIRPα expression at the transcriptional level, the mouse SIRPα promoter was cloned into a promoterless pGL4.20 [luc2/puro] vector to create a SIRPα-Luc reporter plasmid. e Nex, A31A7 macrophages were transiently transfected in the absence or presence of 10 μM of NextA and luminescence was evaluated. A31A7 cells were successfully transfected with the SIRPα-luciferase reporter vector as evidenced by a 32.2-fold increase in relative luminescence units (RLU) compared to untransfected cells (FIG. 2B).

SM1 melanoma cells = assay: Cd47 mRNA upon IFNγ stimulation in SM1 cells; type: cell-based, mouse; conditions: IFNγ for 12 hours
Method: qRT-PCR: Total RNA was extracted from cells using the Trizol reagent according to manufacturer's instructions (ThermoFisher Scientific, 15596018). Samples were then processed immediately or stored at −80° C. RNA was quantified using a NanoDrop One Spectrophotometer (ThermoFisher Scientific). The 260/280 ratios were routinely over 1.8. Sample cDNA was produced using the iScript cDNA synthesis kit (Bio-Rad, 1708891). Target mRNA was quantified using MyIQ single-color real-time PCR detection system from Bio-Rad (Bio-Rad, Hercules, CA) and iQ SYBR green Supermix (Bio-Rad, 1708882). The following primers were synthesized by Invitrogen (Waltham, MA) with sequences designed by Origene (Rockville, MD): mouse R-actin (MP200232), mouse Nos2 (MP208933), mouse MRC1 (MP207800), human R-actin (HP204660), human IL-1β (HP200544), human MRC1 (HP206121), human NOS2 (HP200591), human CD209 (HP214086), mouse SIRPα (MP215450), mouse LRP1 (MP207604), human LRP1 (HP206040), mouse MFGE8 (MP208190), human MFGE8 (HP225757), mouse CD36 (MP201923), human CD36 (HP200058), and mouse CD47 (MP201932). Primers for mouse ARG-1 (PPM31770C) and human SIRPα (QT01031051) were purchased from Qiagen (Hilden, Germany). […] Quantification is expressed in arbitrary units and target mRNA levels were normalized to R-actin expression.
Although the mechanism by which IFNγ drives CD47 upregulation is unclear, IFNγ expression correlates to CD47 expression in skin cutaneous melanoma (Ye Z H, et al. (2021) Transl. Oncol. 14:101162). The kinetics of Cd47 mRNA in SM1 and B16 cells upon IFNγ stimulation (100 ng/mL) were evaluated and these mouse melanoma models were determined to have different kinetics (FIG. 9A-FIG. 9B). It was determined that 12 hours was a time point for both models to sustain the IFNγ-mediated upregulation. In FIG. 9B, the role of HDAC6 inhibitors NextA and Tubastatin A in abrogating Cd47 upregulation upon stimulation with IFNγ for 12 hours was evaluated.

SIRPα = SIRPα gene expression in THP1-derived macrophages by qRT-PCR; type: cell-based, human; conditions: qRT-PCR (FIG. 2A)
Method: Macrophages were polarized to M1-like phenotype using 50 ng/mL of interferon gamma (IFNγ, 575306, Biolegend) and 100 ng/mL of bacterial lipopolysaccharide (LPS, L2880, Sigma Aldrich, St. Louis, MO) for 24 hours. To polarize macrophages towards the M2-like phenotype, macrophages were stimulated with 20 ng/mL of IL-4 (214-14, PeproTech) and 20 ng/mL of IL-13 (575904, Biolegend). THP1 monocytes were treated with 5 ng/mL of phorbol 12-myristate 13-acetate (PMA) to induce differentiation into macrophages. Once converted to macrophages, media was replaced to remove PMA prior to treatment and/or polarization. Polarization towards M1 and M2 phenotypes was performed with respective recombinant human cytokines from PeproTech: 50 ng/mL of IFNγ (300-02), 20 ng/mL IL-4 (200-04), and 20 ng/mL IL-13 (200-13). 100 ng/mL LPS was also used to polarize toward the M1 phenotype. 3. In vivo Studies.
qRT-PCR: Total RNA was extracted from cells using the Trizol reagent according to manufacturer's instructions (ThermoFisher Scientific, 15596018). […] RNA was quantified using a NanoDrop One Spectrophotometer (ThermoFisher Scientific). […] Target mRNA was quantified using MyIQ single-color real-time PCR detection system from Bio-Rad (Bio-Rad, Hercules, CA) and iQ SYBR green Supermix (Bio-Rad, 1708882). […] Quantification is expressed in arbitrary units and target mRNA levels were normalized to R-actin expression.

A31A7 macrophages = assay: Western Blotting of A31A7 macrophages polarized to M2; type: cell-based, mouse; conditions: Western Blot, M2 A31A7 (FIG. 7F)
Method: Cells were treated with the respective compounds for 24 h. Then, cells were lysed using RIPA buffer (ThermoFisher Scientific Pierce, 89901, Waltham, MA) supplemented with 1× protease and phosphatase inhibitor (ThermoFisher Scientific, A32961). Lysates were sonicated at 4° C. for 8 minutes (8 cycles of 30 sec on, 30 sec off). Protein concentration was quantified using a BCA protein assay (ThermoFisher Scientific, 23225) following manufacturer's instructions. Samples were mixed with 6× Laemmli SDS sample reducing buffer (Alfa Aesar, J61337AC, Tewksbury, MA), and boiled at 80° C. for 10 min. Next, samples were loaded on to 4%-20% gels (Bio-Rad, 4561096, Hercules, CA), transferred to PVDF membranes and blocked with Odyssey Blocking Buffer (LI-COR Biosciences, 927-40000, Lincoln, NE). The following primary antibodies used for immunoblotting were purchased from Cell Signaling Technologies (Danvers, MA): tubulin (3873), acetylated tubulin (3971), arginase-1 (93668), and SIRPα (13379). Primary antibody recognizing HDAC6 was purchased from Assay Biotechnology (C0226, Fremont, CA), and iNOS antibody was purchased from ThermoFisher Scientific (PA3-030A). Bands were detected using Azure Biosystems Imaging System c600 (Azure Biosystems, Dublin, CA).

CCCCN(Cc1ccc(C(=O)NO)cc1)C(=O)Nc1ccccc1 [NextA, Nexturastat A]
increase in relative luminescence units (RLU) compared to untransfected cells (mouse SIRPα promoter): 7.7 fold
IFNγ-driven Cd47 upregulation at the transcriptional level (SM1 melanoma cells): repressed these effects
SIRPα expression at the transcriptional level (SIRPα): significantly downregulated
ARG1 expression (A31A7 macrophages): decrease
HDAC6 inhibitor potency compared with Tubacin and Tubastatin A (A31A7 macrophages): most potent HDAC6 inhibitor
acetylated tubulin, a marker for HDAC6 inhibition (A31A7 macrophages): robust increase
